Entries after “also recorded” stand apart in the source; their conditions may differ.
Tests used:
[1] = cited from earlier work
[2] = dog, intravenous radiolabeled dose; cited from earlier work
[3] = in vivo; cited from earlier work
[4] = humans, no p-gp inhibitor; cited from earlier work
Caco-2 cell monolayers = test: Azithromycin transport across Caco-2 cell monolayers, with and without P-glycoprotein inhibitors; format: in vitro ADME
Description: Caco-2 cell monolayers were grown on permeable transwell-col filter supports (24.5 mm diameter, 0.45 μm pore size) and used in these studies at day 21-24. 2 mls of 0.4 μM ^14C Azithromycin in Hank's balanced salt solution (HBSS) was added to the donor chamber and 2 mls of HBSS was added to the acceptor chamber. An impermeable marker, ^3H Mannitol, was included in these studies to ensure the monolayers were intact. […] Transport was monitored in the apical to basolateral (absorptive) and basolateral to apical (secretory) direction. The wells were incubated for 1 hour (unstirred) at 37° C. Samples were removed after the incubation period and analyzed by dual label LSC. The transport was calculated as percent flux/hr. [formula]
Transport measurements were made in controls, implemented in like fashion except no test compound was included.

[5] = Effect of nelfinavir on the pharmacokinetics of a single oral dose of azithromycin (crossover study); details: co-administration with nelfinavir vs azithromycin alone
Description: (§1) Healthy volunteers received nelfinavir for 11 days. On Day 9 a single dose of azithromycin was administered. Each subject also received a single control dose of 1200 mg azithromycin either two weeks before the start of a nelfinavir treatment regimen or three weeks after a nelfinavir treatment regimen.
(§2) Nelfinavir was administered as 3 commercial 250 mg tablets, 3 times per day (morning dose at approximately 7 am; afternoon dose at approximately 3 pm; evening dose at approximately 10 pm) with food for 11 days. On day 9, azithromycin (1200 mg) was dosed as 2 600 mg commercial tablets at the same time as the morning dose of nelfinavir. On day 9 the subjects, who were previously fasted for at least 8 hr, consumed a standard breakfast consisting of cereal and/or toast with butter and jelly, and milk. Immediately following the standard breakfast, the subjects consumed 750 mg nelfinavir and 1200 mg azithromycin, with 120 ml water. On the day on which azithromycin alone was dosed, 2 600 mg commercial tablets were dosed with 120 ml water, immediately following the standard breakfast.
(§3) Serum samples were assayed for azithromycin utilizing LC/MS/MS. […] Concentrations below the lower limits of quantification were utilized as 0.00 μg/ml in the calculations.
(§4) Maximum observed azithromycin concentrations (Cmax) were determined by inspection of the data. Tmax was defined as the time of first occurrence of Cmax. […] Area under the serum concentration versus time curves (AUClast) were calculated for the interval of pre-dose to the last time at which concentrations of azithromycin were measurable. Total exposure was estimated as AUC for the interval of pre-dose to infinity. AUC=AUClast+C*last/kei, where C*last is the concentration estimated from the aforementioned regression at the time of the last quantifiable concentration of drug.
(§5) Geometric mean values of Cmax, AUC, Cmax ratios, and AUC ratios were determined. Arithmetic means of other parameters were determined.

[6] = in vivo; cited from earlier work; remark: listed apart in the source
clinical = details: human, serum, po, 1200 mg
Description: as §1, §2, §3, §4, §5

[7] = test system: CACO-2 (colon carcinoma) cells; details: cultured CACO-2 cells; cited from earlier work

| Compound | increase in midazolam AUC ([1]; midazolam co-dosed with erythromycin (Zimmerman et al.)) [%] | recovered radiolabel eliminated across the intestinal wall [2] [%] | elimination half-life [3] [h] | oral bioavailability [4] [%] | substrate for the P-glycoprotein efflux transporter (Caco-2 cell monolayers; Caco-2) | % Flux/hr B-A (Caco-2 cell monolayers; human, Caco-2, 1 h, 0.4 μM) [% flux/hr] | % flux/hr A-B (Caco-2 cell monolayers; human, Caco-2, 1 h, 0.4 μM) [% flux/hr] | increase of mean AUC0-∞ for azithromycin ([5]; p=0.0001) [%] | increase of mean Cmax ([5]; p=0.0003) [%] | effect on midazolam plasma levels ([1]; co-dosed with midazolam (Zimmerman et al.; Backman et al.)) | interaction with (effect on plasma levels of) HIV protease inhibitors saquinavir, ritonavir, indinavir, nelfinavir [6] | AUC(0-inf) (clinical) [ng·h/mL] | Cmax (clinical) [ng/mL] | basolateral-to-apical azithromycin flux versus apical-to-basolateral flux [7] |
| --- | --- | --- | --- | --- | --- | --- | --- | --- | --- | --- | --- | --- | --- | --- |
| CC[C@H]1OC(=O)[C@H](C)[C@@H](O[C@H]2C[C@@](C)(OC)[C@@H](O)[C@H](C)O2)[C@H](C)[C@@H](O[C@@H]2O[C@H](C)C[C@H](N(C)C)[C@H]2O)[C@](C)(O)C[C@@H](C)C(=O)[C@H](C)[C@@H](O)[C@]1(C)O [erythromycin] | 380 |  |  |  |  |  |  |  |  |  |  |  |  |  |
| CC[C@H]1OC(=O)[C@H](C)[C@@H](O[C@H]2C[C@@](C)(OC)[C@@H](O)[C@H](C)O2)[C@H](C)[C@@H](O[C@@H]2O[C@H](C)C[C@H](N(C)C)[C@H]2O)[C@](C)(O)C[C@@H](C)CN(C)[C@H](C)[C@@H](O)[C@]1(C)O [Azithromycin, 9a-aza-9a-methyl-9deoxo-9a-homoerythromycin A] |  | 40 | 69 | 37 | is a substrate | 6.6 | 0.1 | 112 | 137 | no effect; also recorded: did not increase | does not interact | 11500 | 889 | exceeded |
| CC[C@H]1OC(=O)[C@H](C)[C@@H](O[C@H]2C[C@@](C)(OC)[C@@H](O)[C@H](C)O2)[C@H](C)[C@@H](O[C@@H]2O[C@H](C)C[C@H](N(C)C)[C@H]2O)[C@](C)(OC)C[C@@H](C)C(=O)[C@H](C)[C@@H](O)[C@]1(C)O [clarithromycin] |  |  |  |  |  |  |  |  |  |  | exhibit an interaction with all but nelfinavir |  |  |  |
